Experimental data published in paper PMC5779714, “Metallochaperone UreG serves as a new target for design of urease inhibitor: A novel strategy for development of antimicrobials” (PLoS Biology, 2018).

Assays:
UreG [1] = molecular target: T1, UreG (Helicobacter pylori, UniProt Q09066); experiment: biochemical; type: binding, H. pylori; conditions: for Normalized fluo: UreG + compound 50μM
UreGΔNKXD = UreGΔNKXD (Helicobacter pylori, UniProt Q09066, D148A/K146A/N145A); experiment: Fluorescence-quenching titration of mutant UreGΔNKXD; type: binding, H. pylori
UreGΔNKXD, sequence (Q09066 whole entry N145A/K146A/D148A): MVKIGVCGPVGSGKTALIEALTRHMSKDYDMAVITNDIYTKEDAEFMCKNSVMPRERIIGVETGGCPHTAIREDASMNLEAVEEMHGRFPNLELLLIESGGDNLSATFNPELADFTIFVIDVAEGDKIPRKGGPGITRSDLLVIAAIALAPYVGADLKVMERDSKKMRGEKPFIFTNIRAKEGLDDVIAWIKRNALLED
Procedure: To further confirm the interface between UreG and small molecules generated from computational models, we then constructed an UreG mutant (UreGΔNKXD) by replacing selected residues (N145, K146, D148) with Ala to disrupt G4 motif, which abolished GTP binding of UreG (S17 Fig).
(§1) Using the relation between the emission intensity at 310 nm and molecule-UreG–bound species, as well as one site-binding model, the Kd values were calculated by a logistic regression model referring to a previous report. […] All fluorescence readings were corrected for the dilution effect.

[2] = test system: AGS cells with H. pylori infection; experiment: AGS cells with H. pylori infection, inhibitors administrated to the AGS cells (S20 Fig); type: cell-based, human; conditions: 10 μM administrated to AGS cells with H. pylori infection
Excerpt: As expected, low viability of AGS with the supplement of cmpd4 and cmpd8 was observed due to the toxicity of small compounds to mammalian cells. […] (PNG) Click here for additional data file.

H. pylori urease = H. pylori urease (Helicobacter pylori, UniProt P14916+P69996); experiment: cell-based; type: cell-based; conditions: read-out: inhibition of urease activity in H. pylori cells
H. pylori urease, sequence (P14916 whole entry, looked up): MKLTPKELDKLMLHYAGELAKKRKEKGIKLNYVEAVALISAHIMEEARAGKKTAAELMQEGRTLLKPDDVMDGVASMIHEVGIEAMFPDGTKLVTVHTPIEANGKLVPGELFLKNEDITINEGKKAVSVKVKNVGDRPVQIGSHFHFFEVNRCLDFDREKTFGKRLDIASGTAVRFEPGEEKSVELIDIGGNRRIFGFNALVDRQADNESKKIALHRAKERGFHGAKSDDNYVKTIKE
H. pylori urease, sequence (P69996 whole entry, looked up): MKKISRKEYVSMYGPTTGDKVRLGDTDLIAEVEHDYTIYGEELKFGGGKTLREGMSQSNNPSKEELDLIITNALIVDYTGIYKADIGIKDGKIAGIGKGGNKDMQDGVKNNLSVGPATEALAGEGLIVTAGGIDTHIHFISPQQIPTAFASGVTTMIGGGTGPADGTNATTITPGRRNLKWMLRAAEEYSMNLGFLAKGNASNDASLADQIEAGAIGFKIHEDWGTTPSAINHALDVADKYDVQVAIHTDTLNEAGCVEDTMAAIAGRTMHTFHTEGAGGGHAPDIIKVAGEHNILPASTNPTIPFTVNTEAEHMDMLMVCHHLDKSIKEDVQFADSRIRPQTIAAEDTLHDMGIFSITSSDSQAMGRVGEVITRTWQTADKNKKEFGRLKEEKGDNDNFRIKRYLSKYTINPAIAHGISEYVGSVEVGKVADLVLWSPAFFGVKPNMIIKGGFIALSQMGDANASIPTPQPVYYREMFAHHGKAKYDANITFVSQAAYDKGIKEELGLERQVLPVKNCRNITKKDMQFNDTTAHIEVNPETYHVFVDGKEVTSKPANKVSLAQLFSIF

H. pylori = experiment: Growth of H. pylori in neutral and acidic brucella broth (OD600); type: cell-based; conditions: for OD600(pH5): acidic brucella broth pH 5.0, 24 h, control 0.93
[3] = test system: AGS cells exposed to H. pylori; experiment: Cell infection model: AGS cells exposed to H. pylori pre-cultured with inhibitors; type: cell-based, human; conditions: for Normalized cell survival (%): H. pylori pre-cultured with 10 μM inhibitor 24 h, MOI 20, 24 h infection, Hp alone 28.8%
UreG [4] = molecular target: T1, UreG; experiment: Fluorescence-quenching titration of UreG (Kd); type: binding, H. pylori
Procedure: as §1

UreG [5] = molecular target: T1, UreG; experiment: biochemical; type: biochemical, H. pylori
Procedure: A Malachite Green Phosphate Assay Kit (Abcam) was utilized to quantify the hydrolysis of GTP by UreG under various conditions. […] GTPase activity of UreG was triggered through the addition of 10 mM KHCO3, after which the reaction was incubated at 37°C for 30 min; then, the free phosphate from hydrolysis of GTP was determined. […] To eliminate the potential effect of small compounds on malachite green assay, the assay included a subtraction of the absorbance of reaction with the same amounts of compounds but without UreG enzyme for each reading.

T1 sequence (Q09066 whole entry): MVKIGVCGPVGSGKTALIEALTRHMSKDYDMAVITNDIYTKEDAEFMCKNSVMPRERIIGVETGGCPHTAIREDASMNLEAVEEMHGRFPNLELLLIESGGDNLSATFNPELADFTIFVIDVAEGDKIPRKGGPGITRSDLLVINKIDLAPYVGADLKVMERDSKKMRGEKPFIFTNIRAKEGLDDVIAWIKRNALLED

Cc1cccc(N2CCN(C(=O)c3cc(S(=O)(=O)N(C)C)ccc3N3CCCC3)CC2)c1C [cmpd4]
Normalized fluo (UreG [1]; Temperature 51.56): 85.74
Normalized fluo (UreG [1]; Temperature 51.96): 88.30
Normalized fluo (UreG [1]; Temperature 52.34): 90.21
Normalized fluo (UreG [1]; Temperature 52.72): 92.02
Normalized fluo (UreG [1]; Temperature 53.10): 93.58
Normalized fluo (UreG [1]; Temperature 53.48): 95.15
Normalized fluo (UreG [1]; Temperature 53.86): 96.31
Normalized fluo (UreG [1]; Temperature 54.24): 97.30
Normalized fluo (UreG [1]; Temperature 54.62): 98.18
Normalized fluo (UreG [1]; Temperature 55.00): 98.87
Normalized fluo (UreG [1]; Temperature 55.38): 99.53
Normalized fluo (UreG [1]; Temperature 55.77): 100.00
ΔTm at 50 µM (UreG [1]; read-out: thermal shift on the melting temperature of UreG): ~2.5 °C
Kd (UreGΔNKXD): 34.7 µM
fluorescence intensity (a.u.) (UreGΔNKXD; log(ligand[μM]) 0): 2206 a.u.
fluorescence intensity (a.u.) (UreGΔNKXD; log(ligand[μM]) 0.30103): 2092 a.u.
fluorescence intensity (a.u.) (UreGΔNKXD; log(ligand[μM]) 0.60206): 1907 a.u.
fluorescence intensity (a.u.) (UreGΔNKXD; log(ligand[μM]) 0.90309): 1710.67 a.u.
fluorescence intensity (a.u.) (UreGΔNKXD; log(ligand[μM]) 1.20412): 1454.33 a.u.
fluorescence intensity (a.u.) (UreGΔNKXD; log(ligand[μM]) 1.50515): 989.433 a.u.
fluorescence intensity (a.u.) (UreGΔNKXD; log(ligand[μM]) 1.80618): 540.3 a.u.
fluorescence intensity (a.u.) (UreGΔNKXD; log(ligand[μM]) 2.10721): 237.1 a.u.
fluorescence intensity (a.u.) (UreGΔNKXD; log(ligand[μM]) -0.30103): 2278 a.u.
fluorescence intensity (a.u.) (UreGΔNKXD; log(ligand[μM]) -1.30103): 2063.67 a.u.
Ammonia in medium [2]: 0.3373 mM
Normalized cell survival (%) [2]: low viability
Normalized cell survival (%) ([2]; listed as cmp4): 22.5225%
inhibition at 20 µM (H. pylori urease): ~60%
OD600(pH5) (H. pylori): 0.46
OD600(pH5) (H. pylori; listed as cmp4): 0.464
OD600 (pH7) (H. pylori; neutral medium, 24 h, control 0.18): 0.141
Normalized cell survival (%) [3]: 70.3% ± 11.3%
Normalized cell survival (%) ([3]; listed as cmp4): 70.2703%
Ammonia in medium (mM) ([3]; H. pylori pre-cultured with 10 μM inhibitor, urea 10 mM, 24 h, Hp alone ca. 2.5 mM): around 1.1 mM
Ammonia in medium ([3]; H. pylori pre-cultured with 10 μM inhibitor, urea 10 mM, 24 h, Hp alone ca. 2.5 mM, listed as cmp4): 1.1872 mM
Kd (UreG [4]): 10.6 ± 2.3 µM
fluorescence intensity (a.u.) (UreG [4]; log(ligand[μM]) 0): 2682 a.u.
fluorescence intensity (a.u.) (UreG [4]; log(ligand[μM]) 0.30103): 2455.33 a.u.
fluorescence intensity (a.u.) (UreG [4]; log(ligand[μM]) 0.60206): 2056.33 a.u.
fluorescence intensity (a.u.) (UreG [4]; log(ligand[μM]) 0.90309): 1714.67 a.u.
fluorescence intensity (a.u.) (UreG [4]; log(ligand[μM]) 1.20412): 1176.67 a.u.
fluorescence intensity (a.u.) (UreG [4]; log(ligand[μM]) 1.50515): 615.233 a.u.
fluorescence intensity (a.u.) (UreG [4]; log(ligand[μM]) 1.80618): 297.433 a.u.
fluorescence intensity (a.u.) (UreG [4]; log(ligand[μM]) -0.30103): 2867.67 a.u.
fluorescence intensity (a.u.) (UreG [4]; log(ligand[μM]) -0.60206): 2962.67 a.u.
fluorescence intensity (a.u.) (UreG [4]; log(ligand[μM]) -1.30103): 3018 a.u.
IC50 (UreG [5]): 16.8 ± 6.5 µM
Normalized GTPase activity(%) (UreG [5]; log[μM] 0): 97.2%
Normalized GTPase activity(%) (UreG [5]; log[μM] 0.60206): 90.0%
Normalized GTPase activity(%) (UreG [5]; log[μM] 0.90309): 69.0%
Normalized GTPase activity(%) (UreG [5]; log[μM] 1.20412): 56.9%
Normalized GTPase activity(%) (UreG [5]; log[μM] 1.50515): 41.1%
Normalized GTPase activity(%) (UreG [5]; log[μM] 1.79588): 28.1%
Normalized GTPase activity(%) (UreG [5]; log[μM] 2.09691): 11.6%
Normalized GTPase activity(%) (UreG [5]; log[μM] 2.39794): 16.3%
Normalized GTPase activity(%) (UreG [5]; purified Ni-UreG (5 µM), 20 µM small compound): 43.9%
inhibition at 20 µM (UreG [5]; read-out: inhibition of the GTPase activity of UreG): 37 to 72%
